Assay results as given in BindingDB's records for doi:10.1016/j.ejmech.2021.113317 (Universities of Shandong, 2021).
pIC50: −log10 of the molar value.

What was measured:
[1] = Reversal of MRP2-mediated multidrug resistance in human KBV cells assessed as cisplatin IC50 at 5 uM after 72 hrs in presence of cisplatin by MTT assay (Rvb = 4902.89 +/- 130.33 nM)
[2] = Reversal of MRP2-mediated multidrug resistance in human KBV cells assessed as cisplatin IC50 at 10 uM after 72 hrs in presence of cisplatin by MTT assay (Rvb = 4902.89 +/- 130.33 nM)
[3] = Reversal of BCRP-mediated multidrug resistance in human KBV cells assessed as mitoxantrone IC50 at 5 uM after 72 hrs in presence of mitoxantrone by MTT assay (Rvb = 1186.50 +/- 29.24 nM)
[4] = Reversal of BCRP-mediated multidrug resistance in human KBV cells assessed as mitoxantrone IC50 at 10 uM after 72 hrs in presence of mitoxantrone by MTT assay (Rvb = 1186.50 +/- 29.24 nM)

SMILES | pIC50 [1] | pIC50 [2] | pIC50 [3] | pIC50 [4]
CSCC[C@H](NC(=O)OC(C)(C)C)C(=O)O[C@H]1CC[C@]2(C)[C@H]3C[C@@H](O)[C@@H]4[C@@H]([C@]5(C)CC[C@H](C(C)(C)O)O5)CC[C@@]4(C)[C@]3(C)CC[C@H]2C1(C)C | < 5.30 | < 5.30 | 6.07 | 6.13
CSCC[C@H](NC(=O)OC(C)(C)C)C(=O)O[C@H]1CC[C@]2(C)[C@H]3C[C@@H](O)[C@@H]4[C@@H]([C@]5(C)CC[C@@H](C(C)(C)O)O5)CC[C@@]4(C)[C@]3(C)CC[C@H]2C1(C)C | < 5.30 | < 5.30 | 5.84 | 6.00
COc1ccc(CCN(C)CCCC(C#N)(c2ccc(OC)c(OC)c2)C(C)C)cc1OC (centres undefined) [NSC_62969] |  | < 5.30 |  | 
